# Test results: paper PMC7532339, “A cell-based large-scale screening of natural compounds for inhibitors of SARS-CoV-2” (Signal Transduction and Targeted Therapy, 2020)
# Read-outs that look alike come from different tables or passages of the source.
# Assays:
# SARS-CoV-2 [1] = assay: Antiviral assay (viral RNA in supernatant by qRT-PCR); format: cell-based, SARS-CoV-2 (WIV-04)
# Vero-E6 cells = assay: Cytotoxicity assay (CCK-8); format: cell-based; details: Vero-E6 cells, 48 h, CCK-8
# Procedure: (§1) Vero-E6 cells were seeded in 96-well plates (1 × 10^4 cells per well) and allowed to grow for 24 h before treatment. Then, serial 2-fold dilutions of compounds were added to the cells. At 48 h, the cells were incubated with 10 μL CCK-8 reagent (cell counting kit-8, Bimake) for 1 h at 37 °C. The absorbance at 450 nm was read by a Microplate Reader (Varioskan Flash, Thermo Fisher). Cell viability was expressed as a percentage of the treated cells to the control (untreated) cells. For each compound concentration, three wells were performed in parallel, and the mean values of the cell viability were calculated.
# [2] = Cytotoxicity assay (CCK-8); format: cell-based; details: African green monkey
# Procedure: as §1
# SARS-CoV-2 [3] = assay: CPE-based HTS assay (CPE reduction quantified by CCK-8 cell viability); details: for inhibition at 10 µM: Severe acute respiratory syndrome coronavirus 2, Vero C1008, 48 h, read-out: protection from CPE; for protection against SARS-CoV-2 infection: known inhibitors used as positive controls
# SARS-CoV-2 [4] = assay: Addition of sodium and potassium assay; format: cell-based, SARS-CoV-2 (WIV-04)
# [5] = Severe acute respiratory syndrome coronavirus 2, Vero C1008
# [6] = Severe acute respiratory syndrome coronavirus 2, Vero C1008, read-out: EC50
# [7] = Vero-E6 cells, 48 h, CCK-8, read-out: CC50
# [8] = primary screening, compound 10 µM, Vero-E6 cells, MOI 0.01, 48 hpi
compound,measurement,setting,value
C=C1C(=O)O[C@@H]2C[C@@]3(C)CCC[C@H](C)C3=C[C@H]12 [Alantolactone],EC50,SARS-CoV-2 [1]; read-out: EC50,1.72 µM
same,CC50,Vero-E6 cells,36.7 µM
COC(=O)[C@@]12OC[C@]34[C@H]([C@@H](O)[C@@H]1O)[C@@]1(C)CC(=O)C(O)=C(C)[C@@H]1C[C@H]3OC(=O)[C@H](OC(=O)CC(C)C)[C@@H]24 [Bruceine A],EC50,SARS-CoV-2 [1]; [5],0.011 µM
same,CC50 at 48 h,[2],31.4 µM
C[C@]12CC[C@H](O)C[C@H]1CC[C@@H]1[C@@H]2CC[C@]2(C)[C@@H](c3ccc(=O)oc3)CC[C@]12O [Bufalin],inhibition at 10 µM,SARS-CoV-2 [3],> 50%
same,EC50,SARS-CoV-2 [1]; [6],0.018 µM
same,CC50 at 48 h,[2]; [7],> 40 µM
same,inhibitory effect on SARS-CoV-2 with added extracellular KCl,SARS-CoV-2 [4],suppressed by KCl
same,inhibitory effect on SARS-CoV-2 with added extracellular NaCl,SARS-CoV-2 [4],enhanced by NaCl
CC(=O)O[C@H]1C[C@]2(O)[C@@H]3CC[C@@H]4C[C@@H](O)CC[C@]4(C)[C@H]3CC[C@]2(C)[C@H]1c1ccc(=O)oc1 [Bufotaline],EC50,SARS-CoV-2 [1]; read-out: EC50,0.0259 µM
same,CC50,Vero-E6 cells,> 40 µM
CC(=O)O[C@H]1[C@H]2O[C@]23[C@@H]2CC[C@@H]4C[C@@H](O)CC[C@]4(C)[C@H]2CC[C@]3(C)[C@H]1c1ccc(=O)oc1 [Cinobufagin],EC50,SARS-CoV-2 [1]; [6],0.018 µM
same,CC50 at 48 h,[2]; [7],> 40 µM
COc1cc(/C=C/C=O)ccc1O [Coniferylaldehyde],EC50,SARS-CoV-2 [1]; [5],11 µM
same,CC50 at 48 h,[2],> 40 µM
C=C[C@H]1[C@H](O[C@@H]2O[C@H](CO)[C@@H](O)[C@H](O)[C@H]2O)OC=C(C(=O)OC)[C@H]1CCOC(=O)c1cc(O)c(O)c(O)c1 [Cornuside],EC50,SARS-CoV-2 [1]; read-out: EC50,5.26 µM
same,CC50,Vero-E6 cells,> 40 µM
C[C@H]1COC2=C1C(=O)C(=O)c1c2ccc2c1CCCC2(C)C [Cryptotanshinone],inhibition at 10 µM,SARS-CoV-2 [3],> 50%
same,EC50,SARS-CoV-2 [1]; [6],5.02 µM
same,CC50 at 48 h,[2]; [7],> 100 µM
C=C1CC[C@H]2C(=C)CC[C@H]3C(=C)C(=O)O[C@@H]3[C@@H]12 [Dehydrocostus lactone],EC50,SARS-CoV-2 [1]; [6],2.32 µM
same,CC50 at 48 h,[2],36.2 µM
C/C=C/c1cc(OC)c2c(c1)C(C)C(c1ccc(O)c(OC)c1)O2 (centres unmarked) [Dehydrodiisoeugenol],EC50,SARS-CoV-2 [1]; read-out: EC50,10.3 µM
same,CC50,Vero-E6 cells,> 100 µM
"C[C@H]1O[C@@H](O[C@H]2[C@@H](O)C[C@H](O[C@H]3[C@@H](O)C[C@H](O[C@H]4CC[C@@]5(C)[C@H](CC[C@@H]6[C@@H]5C[C@@H](O)[C@]5(C)[C@@H](C7=CC(=O)OC7)CC[C@]65O)C4)O[C@@H]3C)O[C@@H]2C)C[C@H](O)[C@@H]1O [Digoxin, reference compound]",inhibition at 10 µM,SARS-CoV-2 [3],> 50%
same,EC50,SARS-CoV-2 [1]; [6],0.154 µM
same,CC50 at 48 h,[2]; [7],> 40 µM
C=C1C(=O)O[C@@H]2C[C@@]3(C)CCCC(=C)[C@@H]3C[C@H]12 [Isoalantolactone],EC50,SARS-CoV-2 [1]; [6],1.48 µM
same,CC50 at 48 h,[2]; [7],> 40 µM
COc1ccc(C[C@@H]2c3cc(Oc4cc(C[C@@H]5c6cc(O)c(OC)cc6CCN5C)ccc4O)c(OC)cc3CCN2C)cc1 [Isoliensinine],EC50,SARS-CoV-2 [1]; [6],1.61 µM
same,CC50 at 48 h,[2],40 µM
COc1cc2c(cc1OC)[C@@H](Cc1ccc(O)c(Oc3cc4c(cc3OC)CCN(C)[C@@H]4Cc3ccc(O)cc3)c1)N(C)CC2 [Liensinine],EC50,SARS-CoV-2 [1]; read-out: EC50,2.54 µM
same,CC50,Vero-E6 cells,25.4 µM
CC1(C)CC[C@]2(C(=O)O)CC[C@]3(C)C(=CC[C@@H]4[C@@]5(C)CC[C@H](O[C@@H]6O[C@H](C(=O)O)[C@@H](O)[C@H](O[C@@H]7OC[C@@H](O)[C@H](O)[C@H]7O)[C@H]6O)C(C)(C)[C@@H]5CC[C@]43C)[C@@H]2C1 [Momordinic],EC50,SARS-CoV-2 [1]; read-out: EC50,3.53 µM
same,CC50,Vero-E6 cells,> 40 µM
C=C1C(=O)[C@]23[C@H](O)[C@H]1CC[C@H]2[C@@]12CO[C@]3(O)[C@@H](O)[C@@H]1C(C)(C)CC[C@@H]2O [Oridonin],EC50,SARS-CoV-2 [1]; [6],1.46 µM
same,CC50 at 48 h,[2],> 40 µM
CO[C@H]1C[C@H](O[C@H]2CC[C@]3(C)[C@H]4CC[C@]5(C)[C@@H](C6=CC(=O)OC6)CC[C@]5(O)[C@@H]4CC[C@]3(O)C2)O[C@H](C)[C@H]1O[C@@H]1O[C@H](CO)[C@@H](O)[C@H](O)[C@H]1O [Periplocoside],EC50,SARS-CoV-2 [1]; read-out: EC50,0.0657 µM
same,CC50,Vero-E6 cells,> 40 µM
C=C(C)[C@@H]1CC[C@]2(C)[C@H](CC=C3[C@@H]4[C@@H](C)[C@H](C)CC[C@]4(C)CC[C@]32C)[C@@]1(C)CCC(=O)O [Roburicacid],EC50,SARS-CoV-2 [1]; read-out: EC50,5.27 µM
same,CC50,Vero-E6 cells,> 40 µM
COc1ccc(C(=O)O[C@H]2CC[C@@]3(C)[C@@H]4CC[C@H]5[C@]6(O)C[C@H](O)[C@@]7(O)[C@@H](CN8C[C@@H](C)CC[C@H]8[C@@]7(C)O)[C@]6(O)C[C@@]53O[C@]24O)cc1OC [Veratridine],EC50,SARS-CoV-2 [1]; [6],2.38 µM
same,CC50 at 48 h,[2]; [7],> 100 µM
CC(C)=CCc1cc2c(cc1O)O[C@H](c1ccc(O)cc1)CC2=O [bavachin],inhibition at 10 µM,SARS-CoV-2 [3]; [8],> 50%
COc1ccc2cc1Oc1ccc(cc1)C[C@H]1c3c(cc4c(c3Oc3cc5c(cc3OC)CCN(C)[C@@H]5C2)OCO4)CCN1C [cepharanthine],inhibition at 10 µM,SARS-CoV-2 [3],> 50%
"CCN(CC)CCCC(C)Nc1ccnc2cc(Cl)ccc12 (centres unmarked) [chloroquine, reference compound]",EC50,"SARS-CoV-2 [3]; Severe acute respiratory syndrome coronavirus 2, Vero C1008, Vero-E6 cells, MOI 0.01, 48 hpi, CCK-8, read-out: EC50 (inhibition of CPE)",2.65 µM
same,protection against SARS-CoV-2 infection,"SARS-CoV-2 [3]; Vero-E6 cells, MOI 0.01, 48 h",provided protection
same,EC50,"SARS-CoV-2 [1]; Severe acute respiratory syndrome coronavirus 2, Vero C1008, 48 h, read-out: EC50 determined by viral RNA copies",1.78 µM
COc1ccc2cc1Oc1ccc(cc1)C[C@H]1c3cc(c(OC)cc3CCN1C)Oc1c(O)c(OC)cc3c1[C@H](C2)N(C)CC3 [fangchinoline],inhibition at 10 µM,SARS-CoV-2 [3],> 50%
CC(C)=CCc1c(O)ccc(C(=O)/C=C/c2ccc(O)cc2)c1O [isobavachalcone],inhibition at 10 µM,SARS-CoV-2 [3]; [8],> 50%
O[C@H]1[C@H]2c3cc4c(cc3CN3CCC(=C[C@@H]1O)[C@H]23)OCO4 [lycorine],inhibition at 10 µM,SARS-CoV-2 [3],> 50%
CC(C)=CCc1cc2c(cc1O)oc(=O)c1c3ccc(O)cc3oc21 [psoralidin],protection from CPE,SARS-CoV-2 [3],> 50%
"CCC(CC)COC(=O)[C@H](C)N[P@](=O)(OC[C@H]1O[C@@](C#N)(c2ccc3c(N)ncnn23)[C@H](O)[C@@H]1O)Oc1ccccc1 [remdesivir, reference compound]",protection against SARS-CoV-2 infection,"SARS-CoV-2 [3]; Vero-E6 cells, MOI 0.01, 48 h",provided protection
"COC(=O)[C@H]1[C@H]2C[C@@H]3c4[nH]c5cc(OC)ccc5c4CCN3C[C@H]2C[C@@H](OC(=O)c2cc(OC)c(OC)c(OC)c2)[C@@H]1OC [reserpine, reference compound]",inhibition at 10 µM,SARS-CoV-2 [3]; [8],> 50%
Cc1coc2c1C(=O)C(=O)c1c-2ccc2c1CCCC2(C)C [tanshinone IIA],inhibition at 10 µM,SARS-CoV-2 [3]; [8],> 50%
COc1ccc2cc1Oc1ccc(cc1)C[C@H]1c3cc(c(OC)cc3CCN1C)Oc1c(OC)c(OC)cc3c1[C@H](C2)N(C)CC3 [tetrandrine],inhibition at 10 µM,SARS-CoV-2 [3]; [8],> 50%
Brusatol,EC50,SARS-CoV-2 [1]; read-out: EC50,0.0492 µM
CB6: neutralizing human antibody CB6,protection against SARS-CoV-2 infection,SARS-CoV-2 [3]; […],provided protection
IFN-α,protection against SARS-CoV-2 infection,SARS-CoV-2 [3]; […],provided protection
